Measurements as given in patent US20180125068A1, “OCTANOIC, NONANOIC AND DECANOIC FATTY ACIDS WITH PYRETHROID ADULTICIDES” (priority 2016, published 2018).
Read-outs that look alike come from different tables or passages of the source.

Columns and labels:
[1] = system: Aedes aegypti resistant to permethrin (Key West strain); test: Wind tunnel bioassay, various pyrethroids (Example 7); format: in vivo; settings: pyrethroid alone 0.5% A.I., C8910 0%, 24 hours post-spray, mean
Description: This exposed 80 caged A. aegypti to the spray. Each test was replicated four times.

[2] = system: pyrethroid susceptible Aedes aegypti; test: CDC bottle bioassay, susceptible strain; format: in vivo
Protocol: (§1) The following bioassays were performed to determine how pyrethroid susceptible and pyrethroid resistant Aedes aegypti responded to exposure to permethrin and the fatty acids mixture, separately and combined. The standard Centers for Disease Control (“CDC”) bottle bioassay method was used. The testing was conducted at Centro Internacional de Entrenamiento e Investigaciones Médicas (“CIDEIM”) in Colombia with susceptible and resistant Aedes aegypti. The compounds were diluted in acetone, added to the bottles, and bottles were rolled to coat them internally until dry. Susceptible and resistant mosquitoes were exposed inside the treated bottles.
(§2) Bottle bioassays assess susceptibility by measuring time-to-death of mosquitoes exposed in bottles coated internally with a “diagnostic concentration” of the test compound.

[3] = system: Aedes aegypti resistant and susceptible to permethrin; test: WHO wind tunnel bioassay (Example 4); format: in vivo; settings: 24 hour mortality
Protocol: In this bioassay, the standard WHO wind tunnel bioassay was used by CIDEIM. Aedes aegypti that were known to be resistant and susceptible to permethrin were used in the studies. […] solutions were prepared with the following ratios of C8, 9, 10 fatty acids mixture to permethrin: 2:1 (0.67% C8910+0.33% permethrin); 1:1 (0.5% C8910+0.5% permethrin); and 1:2 (0.33% C8910+0.67% permethrin). A one percent permethrin formulation was tested as well as a C8, 9, 10 fatty acids mixture.
The solutions were diluted in acetone to 1%, 0.1%, 0.01%, 0.001%, 0.0001%, and 0.00001%. Then 0.5 ml of each dilution was sprayed into the wind tunnel. This exposed 20 caged mosquitos to the spray. Each test was replicated three times. The 24 hour mortality was then observed. This type of assay is desirable because it tests the compounds without being formulated.

[4] = system: A. aegypti susceptible to permethrin (Benzon research strain); settings: observed, C8910 0%
Description: (§3) In this bioassay, Aedes aegypti known to be resistant to permethrin (Key West strain) were exposed to C8, 9, 10 alone, permethrin alone, and combinations of C8, 9, 10 and permethrin at 1:5, 1:2, 1:1, 2:1 and 5:1 ratios in a standard wind tunnel bioassay. The actives were suspended in 1 milliliter oil-based ultra-low volume sprays and sprayed into the wind tunnel. This exposed 80 caged A. aegypti to the spray. Each test was replicated four times. Fifteen-minute, one-hour and twenty-four hour mortality of the resistant A. aegypti was then observed.
(§4) Synergy was calculated using Abbott's synergy equation described in Levy Y et al., The joint action of fungicides in mixtures: comparison of two methods for synergy calculation, Bulletin OEPP/EPPO Bulletin, 1986, 16, 651-657. Specifically, a ratio greater than 1.0 of observed to expected percent mortality for combinations of two pesticides is evidence of synergy. Expected % mortality was calculated using the formula % Cexp=A+B−[…] where A is percent mortality of A. aegypti exposed to C8, 9, 10, B is percent mortality of A. aegypti exposed to permethrin and Cexp is expected percent mortality of A. aegypti exposed to a combination of C8, 9, 10 and permethrin.
In this assay, A. aegypti known to be susceptible to permethrin (Benzon research strain) were exposed to C8, 9, 10 alone, permethrin alone, and combinations of C8, 9, 10 and permethrin at 1:5, 1:2, 1:1, 2:1 and 5:1 ratios in a standard wind tunnel bioassay identical to that described above.

[5] = system: pyrethroid resistant Aedes aegypti; test: CDC bottle bioassay, resistant strain; format: in vivo; settings: bottle coated with diagnostic concentration, n=5
Protocol: as §1, §2

[6] = system: Aedes aegypti resistant to permethrin (Key West strain); settings: observed, C8910 0%
Description: as §3, §4

[7] = system: Cimex lectularius susceptible to insecticides (Harold Harlan strain); settings: observed, d-Phenothrin 0.25% alone
Protocol: as §4
(§5) The actives were suspended in 1 milliliter oil-based ultra-low volume sprays and sprayed into the wind tunnel. This exposed 10 adult male beg bugs to the spray. Each test was replicated three times. 1, 2, 3 and 4-day mortality of the bed bugs was then observed.

[8] = system: Cimex lectularius resistant to deltamethrin (Lex8 strain); settings: observed, d-Phenothrin 0.375% alone
Protocol: as §4, §5

[9] = susceptible strain, bottle coated with diagnostic concentration, n=5

## CC(C)=C[C@@H]1[C@@H](C(=O)O[C@H](C#N)c2cccc(Oc3ccccc3)c2)C1(C)C (relative stereo) [d,d,trans-cyphenothrin, d,d,trans-Cyphenothrin]
[1]
  % Mortality 24 hour: 76%

## CC1(C)C(C(=O)OC(C#N)c2cccc(Oc3ccccc3)c2)C1(C)C (centres unmarked) [Fenpropathrin]
[1]; Aedes aegypti
  mortality at 0.5 % strength: 65%

## CC1(C)C(C=C(Cl)Cl)C1C(=O)OCc1cccc(Oc2ccccc2)c1 (centres unmarked) [Permethrin]
[2]; susceptible mosquitos, at about 80 minutes, FIG. 1
  mortality: ~100%
[2]; [9]
  LT50: 18.8 min
  LT99: 99.3 min
[3]
  mortality rate of resistant compared with susceptible mosquitos: lower mortality rates
[4]; 15 min, Permethrin 0.4%
  % Mortality: 4.4%
[4]; 15 min, Permethrin 1.0%
  % Mortality: 26.9%
[4]; 1 hour, Permethrin 0.4%
  % Mortality: 34.1%
[4]; 1 hour, Permethrin 1.0%
  % Mortality: 54.4%
[4]; 24 hour, Permethrin 0.4%
  % Mortality: 42.5%
[4]; 24 hour, Permethrin 1.0%
  % Mortality: 65.3%
[5]
  LT50: 73.5 min
  LT99: 306.7 min
[6]; 15 min, Permethrin 1.6%
  % Mortality: 28.1%
[6]; 15 min, Permethrin 4.0%
  % Mortality: 34.4%
[6]; 1 hour, Permethrin 1.6%
  % Mortality: 41.6%
[6]; 1 hour, Permethrin 4.0%
  % Mortality: 49.4%
[6]; 24 hour, Permethrin 1.6%
  % Mortality: 55.0%
[6]; 24 hour, Permethrin 4.0%
  % Mortality: 63.4%

## CC(C)=CC1C(C(=O)OCc2cccc(Oc3ccccc3)c2)C1(C)C (stereo not drawn) [d-Phenothrin, Sumithrin (d-phenothrin)]
[7]; 1 day
  % Mortality: 0.0%
[7]; 2 days
  % Mortality: 0.0%
[7]; 3 days
  % Mortality: 46.7%
[7]; 4 days
  % Mortality: 56.7%
[8]; 1 day
  % Mortality: 6.7%
[8]; 2 days
  % Mortality: 10.0%
